Reference: patent US12434076B2, “Low energy immune priming for treating cancer and metastasis” (priority 2017, dated 2025)

Key:
RM1 tumor = RM1 tumor growth in C57Bl/6 mice (LOFU, 17AAG); type: in vivo, mouse; settings: for tumor volume: intraperitoneal, three times a week, untreated tumor 1879±98.65 mm^3
Description: (§1) This protocol yielded an approximate in situ spatial-peak temporal-average acoustic intensity of 270 W/cm^2, resulting in estimated average infra-tumoral temperature elevation of 3.2° C. Post-treatment, there were no signs of normal tissue toxicity such as alopecia, thermal damage, or skin wounds. […] Control mice were injected with equal volume of the vehicle DMSO, which was used to solubilize 17AAG.
(§2) Tumor model and treatment; C57Bl/6 and BalbC nu/nu mice were injected subcutaneously with 1×10^5 RM-1 (murine prostate cancer cell line) and 1×10^6 PC3 (human prostate cancer cell line) cells on the flank, respectively. Approximately 10 days later, the tumor became palpable (3-5 mm in diameter), whereupon LOFU treatment was initiated. […] Palpable tumors were treated with LOFU every 3-4 days for five fractions administered over two weeks. Animals received 17AAG three times a week during this time. Tumor volume measurements were performed twice weekly using Vernier calipers along with simultaneous physical assessment of signs of systemic toxicity (malaise and diarrhea).

[1] = Toxicity and dose finding of 17AAG in mice; type: in vivo, mouse
Description: as §1
Thus, these dose levels were selected for the current study. The goal was to combine two therapies that are nontoxic, albeit subtherapeutic, and examine whether the combination can be therapeutic. […] To detect the level of ER stress, the expression levels of ER chaperones, ERp44, ERp57, and ERp72 were quantitated among different treatment groups. ERp44 is responsible for oxidative protein folding. ERp57 is an ER resident thiol disulfide oxidoreductase while Erp72 is a disulfide isomerase. All these proteins participate in the protein folding machinery of the ER.
as §2
Kaplan-Meier Survival analysis: Mice survival/mortality in different treatment groups was analyzed by Kaplan-Meier as a function of radiation dose using Sigma-Plot and GraphPad Prism (version 4.0 for OS X, San Diego, CA, USA) software.

[2] = test system: human hepatocellular carcinoma cell lines (HepG2, Hep3B, Huh7); assay: Cell growth and cell death of human HCC cell lines (LOFU, WP1066); type: cell-based; settings: WP1066 added prior LOFU treatment
TPSA23 tumor cells = assay: Clonogenic assay, TPSA23; type: cell-based, murine

## C=CCNC1=C2C[C@@H](C)C[C@H](OC)[C@H](O)[C@@H](C)/C=C(\C)[C@H](OC(N)=O)[C@@H](OC)/C=C\C=C(/C)C(=O)NC(=CC1=O)C2=O [17AAG, 17-N-allylamino-17-demethoxygeldanamycinan]
RM1 tumor; 17AAG 25 mg/kg body weight
  average estimated tumor growth slower compared to control group: 9%
  interval within which all animals achieved tumor size 2000 mm^3: 26 to 30 days
RM1 tumor; 17AAG 50 mg/kg b.w.
  tumor volume: 964 mm3
RM1 tumor; 17AAG 75 mg/kg b.w.
  tumor volume: 485±24.25 mm3
[1]; 75 mg/kg of body weight, after 21 days of treatment, C57Bl/6 mice
  death of mice (Kaplan Meier survival analysis): 50%
[1]; Balb/c nude mice
  low dose found to be nontoxic: 14 mg/kg
[1]; C57Bl/6 mice
  low dose found to be nontoxic: 25 mg/kg
[1]; low dose 17AAG 25 mg/kg body weight
  normal tissue toxic effect: did not show any normal tissue toxic effect

## C[C@H](NC(=O)/C(C#N)=C/c1cccc(Br)n1)c1ccccc1 [WP1066]
[2]
  inducing cell death: superior effect on inducing cell death

## CNC(=O)c1ccc(N2C(=S)N(c3cnc(C#N)c(C(F)(F)F)c3)C(=O)C23CCC3)cc1F [apalutamide]
TPSA23 tumor cells; 5 μM apalutamide in combination with LOFU, vs apalutamide or LOFU alone
  clonogenicity (colonies): significantly fewer colonies
TPSA23 tumor cells; 10 μM apalutamide alone
  clonogenicity: significant reduction in clonogenicity
TPSA23 tumor cells; 10 μM apalutamide in combination with LOFU
  clonogenicity: still more effective
